Assay results reported in ChEMBL document CHEMBL3286122, “Structure-assisted discovery of the first non-retinoid ligands for Retinol-Binding Protein 4” (Bioorg Med Chem Lett, 2014).
The source made the active and inactive calls. The rule behind the calls is not given here.

Tests used:
[1] = target: T1, Retinol-binding protein 4 (Homo sapiens, UniProt P02753); experiment: Displacement of [3H]-retinol from human recombinant RBP4 by scintillation proximity assay
[2] = target: T1, Retinol-binding protein 4; experiment: Inhibition of human recombinant RBP4-transthyretin interaction by FRET analysis
[3] = Metabolic stability in rat liver microsomes assessed as compound remaining after 30 mins; assay type: ADME; settings: read-out: Stability
[4] = Clearance in rat at 0.5 mg/kg, iv; assay type: ADME, organism-based; design: dose 0.5 mg/kg, route intravenous; settings: in vivo
[5] = AUC in rat at 0.5 mg/kg, iv; assay type: ADME, organism-based; design: dose 0.5 mg/kg, route intravenous; settings: plasma
[6] = Mean residence time in rat at 0.5 mg/kg, iv; assay type: ADME, organism-based; design: dose 0.5 mg/kg, route intravenous; settings: in vivo
[7] = Volume of distribution at steady state in rat at 0.5 mg/kg, iv; assay type: ADME, organism-based; design: dose 0.5 mg/kg, route intravenous; settings: in vivo, read-out: Vdss
[8] = Cmax in mouse at 5 mg/kg, po; assay type: ADME, organism-based; design: dose 5 mg/kg, route oral; settings: in vivo
[9] = AUC in mouse at 5 mg/kg, po; assay type: ADME, organism-based; design: dose 5 mg/kg, route oral; settings: plasma
[10] = Mean residence time in mouse at 5 mg/kg, po; assay type: ADME, organism-based; design: dose 5 mg/kg, route oral; settings: in vivo
Liver microsome [11] = experiment: Drug metabolism in rat liver microsomes assessed as oxidation in pyridinyl piperazine region; assay type: ADME
Liver microsome [12] = experiment: Drug metabolism in human liver microsomes assessed as oxidation in pyridinyl piperazine region; assay type: ADME
Mus musculus [13] = species: Mus musculus; experiment: Reduction in RBP4 level in chow-fed B6D2F1 mouse after 4 hrs; assay type: functional, organism-based
Mus musculus [14] = species: Mus musculus; experiment: Reduction in retinol level in chow-fed B6D2F1 mouse after 4 hrs; assay type: functional, organism-based
Liver microsome [15] = experiment: Drug metabolism in rat liver microsomes assessed as hydrolysis into primary urea; assay type: ADME
Liver microsome [16] = experiment: Drug metabolism in human liver microsomes assessed as hydrolysis primary urea; assay type: ADME
[17] = Cmax in mouse at 30 mg/kg, po; assay type: ADME, organism-based; design: dose 30 mg/kg, route oral; settings: in vivo
[18] = AUC in mouse at 30 mg/kg, po; assay type: ADME, organism-based; design: dose 30 mg/kg, route oral; settings: plasma
[19] = Mean residence time in mouse at 30 mg/kg, po; assay type: ADME, organism-based; design: dose 30 mg/kg, route oral; settings: in vivo
Mus musculus [20] = species: Mus musculus; experiment: Reduction in RBP4 level in chow-fed B6D2F1 mouse at 5 uM after 4 hrs; assay type: functional, organism-based
Mus musculus [21] = species: Mus musculus; experiment: Reduction in retinol level in chow-fed B6D2F1 mouse at 5 uM after 4 hrs; assay type: functional, organism-based

Row | Compound | IC50 [1] [µM] | IC50 [2] [µM] | other results
1 | O=C(Cc1ccccc1C(F)(F)F)N1CCN(c2ncccc2C(F)(F)F)CC1 | 3.61 | > 10 | –
2 | O=C(O)c1ccccc1NC(=O)N1CCC(c2ccccc2C(F)(F)F)CC1 | – | – | remaining at 0.5 h [3]: > 90%; clearance [4]: 0.0833 mL/min/kg; AUC [5]: 10700 ng·h/mL; MRT [6]: 9.7 h; Vd [7]: 0.045 L/kg; Cmax [8]: 2950 ng/mL; AUC [9]: 17200 ng·h/mL; MRT [10]: 5.4 h; Drug metabolism (Liver microsome [11]): metabolite_notdetected; Drug metabolism (Liver microsome [12]): metabolite_notdetected; Activity (Mus musculus [13]): Dose-dependent effect; EC50 (Mus musculus [13]; B6D2F1, 4 h): 0.98 µM; Activity (Mus musculus [14]): Dose-dependent effect; EC50 (Mus musculus [14]; B6D2F1, 4 h): 1.1 µM
3 | COc1ccc(Cl)cc1NC(=O)N1CCCN(c2ncccc2C(F)(F)F)CC1 | 0.48 | 0.67 | –
4 | COc1ccc(Cl)cc1C(=O)N1CCN(c2ncnc3sc4c(c23)CCC4)C(C)C1 (stereo unspecified) | 0.83 | 1.48 | –
5 | O=C(c1cn(Cc2ccccc2)cn1)N1CCN(c2ccccc2Cl)CC1 | 0.44 | – | –
6 | COc1ccc(Cl)cc1NC(=O)N1CCN(c2ncccc2C(F)(F)F)CC1C (stereo unspecified) | 0.45 | 0.35 | –
7 | O=C(Cc1ccccc1C(F)(F)F)N1CCN(c2ncnc3sc4c(c23)CCC4)CC1 | 0.28 | 0.06 | –
8 | COC(=O)c1ccccc1NC(=O)N1CCC(c2ccccc2C(F)(F)F)CC1 | 0.091 | 0.018 | –
9 | COc1ccc(Cl)cc1NC(=O)N1CCN(c2ccccc2)CC1 | 30 | – | –
10 | FC(F)(F)c1ccnc(N2CCC(c3ccccc3C(F)(F)F)CC2)n1 | 0.27 | 0.028 | –
11 | COc1ccc(Cl)cc1NC(=O)N1CCN(c2ccccc2Cl)CC1 | 0.89 | 1.3 | –
12 | O=C(O)c1ccccc1NC(=O)N1CCN(c2ncccc2C(F)(F)F)CC1 | – | – | remaining at 0.5 h [3]: 51%; clearance [4]: 1.67 mL/min/kg; AUC [5]: 5080 ng·h/mL; MRT [6]: 2.6 h; Vd [7]: 0.26 L/kg; Cmax [8]: 1000 ng/mL; AUC [9]: 3650 ng·h/mL; MRT [10]: 3.2 h; Drug metabolism (Liver microsome [15]): metabolite_notdetected; Drug metabolism (Liver microsome [16]): metabolite_notdetected
13 | O=C(c1cnccc1C(F)(F)F)N1CCC(c2ccccc2C(F)(F)F)CC1 | 0.13 | 0.076 | –
14 | Cn1cnc(C(=O)N2CCC(c3ccccc3C(F)(F)F)CC2)c1 | 0.11 | 0.017 | –
15 | COc1ccc(Cl)cc1NC(=O)N1CCN(c2ncccc2C(F)(F)F)CC1 | 0.23 | 0.13 | remaining at 0.5 h [3]: 1%; Drug metabolism (Liver microsome [11]): metabolite_detected; Drug metabolism (Liver microsome [15]): metabolite_detected; Drug metabolism (Liver microsome [16]): metabolite_detected; Drug metabolism (Liver microsome [12]): metabolite_detected
16 | COc1ccc(Cl)cc1NC(=O)N1CCN(CCc2ccccc2)CC1 | > 30 | > 30 | –
17 | COc1ccc(Cl)cc1NC(=O)N1CCC(c2ccccc2C(F)(F)F)CC1 | 0.16 | 0.023 | –
18 | O=C(c1nccs1)N1CCC(c2ccccc2C(F)(F)F)CC1 | 0.051 | 0.003 | –

Row | Compound | IC50 [1] [µM] | IC50 [2] [µM] | other results
19 | O=C(c1ccco1)N1CCC(c2ccccc2C(F)(F)F)CC1 | 0.12 | 0.052 | –
20 | FC(F)(F)c1cccc(CN2CCN(c3ncnc4sc5c(c34)CCC5)CC2)c1 | 0.6 | 0.024 | –
21 | COc1ccc(Cl)cc1NC(=O)N1CCN(c2ncnc3sc4c(c23)CCC4)CC1 | 0.36 | 0.6 | –
22 | O=C(c1cc(C(F)(F)F)[nH]n1)N1CCC(c2ccccc2C(F)(F)F)CC1 | 0.24 | 0.12 | –
23 | COc1ccc(Cl)cc1NC(=O)N1CCN(c2ccccn2)CC1 | > 30 | > 30 | –
24 | COc1ccc(Cl)cc1NC(=O)N1CCN(c2ccccc2C(F)(F)F)CC1 | 0.07 | 0.017 | –
25 | CC1=C(/C=C/C(C)=C/C=C/C(C)=C/C(=O)Nc2ccc(O)cc2)C(C)(C)CCC1 [FENRETINIDE] | – | – | remaining at 0.5 h [3]: 67%; clearance [4]: 5 mL/min/kg; AUC [5]: 1660 ng·h/mL; MRT [6]: 10.5 h; Vd [7]: 3.2 L/kg; Cmax [17]: 65 ng/mL; AUC [18]: 1210 ng·h/mL; MRT [19]: 35 h; Activity (Mus musculus [20]): Active; Activity (Mus musculus [21]): Active
26 | COc1ccc(Cl)cc1NC(=O)N1CCN(c2ccccc2Cl)C(=O)C1 | 3.6 | – | –
27 | COc1ccc(Cl)cc1NC(=O)N1CCN(c2ncccc2Cl)CC1 | 2.5 | – | –
28 | COc1ccc(Cl)cc1NC(=O)C1CCN(c2ncccc2C(F)(F)F)CC1 | 1.1 | – | –
29 | COC(=O)c1cccc(C(=O)N2CCC(c3ccccc3C(F)(F)F)CC2)c1 | 0.83 | 0.6 | –
30 | O=C(c1cccc(C(F)(F)F)c1)N1CCC(c2ccccc2C(F)(F)F)CC1 | 0.92 | 2.7 | –
31 | COc1ccc(Cl)cc1NC(=O)N1CCN(C)CC1 | > 30 | – | –
32 | Cn1cncc1C(=O)N1CCC(c2ccccc2C(F)(F)F)CC1 | 0.84 | 0.55 | –
33 | COc1ccc(Cl)cc1NC(=O)N1CCN(Cc2c(Cl)cccc2Cl)CC1 | 4.5 | 7.5 | –
34 | COc1ccc(Cl)cc1NC(=O)N1CCN(c2ncc(C(F)(F)F)cc2C(F)(F)F)CC1 | 2.2 | – | –
35 | FC(F)(F)c1cccc(CN2CCN(c3ncccc3C(F)(F)F)CC2)c1 | > 30 | > 10 | –
